Where a name gives a salt, the structure may show the parent alone.
The molecules below were run against LsrK (Salmonella typhimurium, UniProt Q8ZKQ6) (assay: biochemical). Details: not given.
Assay type: biochemical, S. typhimurium

Sequence of LsrK (Q8ZKQ6 whole entry): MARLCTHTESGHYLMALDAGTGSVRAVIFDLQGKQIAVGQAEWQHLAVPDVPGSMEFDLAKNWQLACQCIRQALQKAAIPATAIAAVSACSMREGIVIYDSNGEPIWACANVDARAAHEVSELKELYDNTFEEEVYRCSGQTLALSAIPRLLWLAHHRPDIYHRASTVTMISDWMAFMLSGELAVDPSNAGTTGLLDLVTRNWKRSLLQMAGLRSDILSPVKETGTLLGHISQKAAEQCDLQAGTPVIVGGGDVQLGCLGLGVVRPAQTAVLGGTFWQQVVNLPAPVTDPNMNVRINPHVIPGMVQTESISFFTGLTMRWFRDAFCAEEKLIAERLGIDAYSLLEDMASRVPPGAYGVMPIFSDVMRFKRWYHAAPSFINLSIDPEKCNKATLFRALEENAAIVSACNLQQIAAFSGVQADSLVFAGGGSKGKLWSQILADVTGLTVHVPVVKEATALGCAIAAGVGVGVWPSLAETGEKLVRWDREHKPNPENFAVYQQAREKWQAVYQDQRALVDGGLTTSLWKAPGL

Compound | inhibition at 50 µM [%] | IC50 [µM]
O=C(O)CCCO [SODIUM OXYBATE] | 1 | 
CCCCC(CC)CCC(CC(C)C)OS(=O)(=O)O (stereo not shown) [SODIUM TETRADECYL SULFATE] | 98 | 
C[C@@H]1CC[C@@]2(NC1)O[C@H]1C[C@H]3[C@@H]4CC=C5C[C@@H](O)CC[C@]5(C)[C@H]4CC[C@]3(C)[C@H]1[C@@H]2C [SOLASODINE] | 1 | 
NCCCNCCCCNCCCN [SPERMINE] | 2 | 
COc1cc(C)c2c(c1C=O)Oc1c(c(C)c(O)c3c1C(O)OC3=O)OC2=O (stereo not shown) [STICTIC ACID] | 119 | 3
CC[C@H](/C=C/[C@@H](C)[C@H]1CC[C@H]2[C@@H]3CC=C4C[C@@H](O)CC[C@]4(C)[C@H]3CC[C@]12C)C(C)C [STIGMASTEROL] | 1 | 
C[C@]12CC[C@H]3[C@@H](CC[C@]4(O)C[C@@H](O)CC[C@]34C=O)[C@@]1(O)CC[C@@H]2C1=CC(=O)OC1 [STROPHANTHIDIN] | 0 | 
OC[C@H]1O[C@H](O[C@]2(CCl)O[C@H](CCl)[C@@H](O)[C@@H]2O)[C@H](O)[C@@H](O)[C@H]1Cl [SUCRALOSE] | 3 | 
CC(=O)NS(=O)(=O)c1ccc(N)cc1 [SULFACETAMIDE] | 0 | 
COc1ncnc(NS(=O)(=O)c2ccc(N)cc2)c1OC [SULFADOXINE] | 1 | 
Cc1ccnc(NS(=O)(=O)c2ccc(N)cc2)n1 [SULFAMERAZINE] | 2 | 
Cc1nnc(NS(=O)(=O)c2ccc(N)cc2)s1 [SULFAMETHIZOLE] | 2 | 
Cc1cc(NS(=O)(=O)c2ccc(N)cc2)no1 [SULFAMETHOXAZOLE] | 1 | 
Nc1ccc(S(=O)(=O)Nc2cnc3ccccc3n2)cc1 [SULFAQUINOXALINE SODIUM] | 1 | 
O=C(O)c1cc(/N=N/c2ccc(S(=O)(=O)Nc3ccccn3)cc2)ccc1O [SULFASALAZINE] | 5 | 
O=C1C(CC[S+]([O-])c2ccccc2)C(=O)N(c2ccccc2)N1c1ccccc1 (stereo not shown) [SULFINPYRAZONE] | 129 | 
CC(=O)N(c1onc(C)c1C)S(=O)(=O)c1ccc(N)cc1 [SULFISOXAZOLE ACETYL] | 4 | 
Cc1noc(NS(=O)(=O)c2ccc(N)cc2)c1C [SULFISOXAZOLE] | 1 | 
CCCCCCCCNC(C)C(O)c1ccc(SC(C)C)cc1 (stereo not shown) [SULOCTIDIL] | 0 | 
CCN1CCCC1CNC(=O)c1cc(S(N)(=O)=O)ccc1OC (stereo not shown) [SULPIRIDE] | 83 | 
Cc1ccc(C(=O)Nc2ccc(S(=O)(=O)O)c3cc(S(=O)(=O)O)cc(S(=O)(=O)O)c23)cc1NC(=O)c1cccc(NC(=O)Nc2cccc(C(=O)Nc3cc(C(=O)Nc4ccc(S(=O)(=O)O)c5cc(S(=O)(=O)O)cc(S(=O)(=O)O)c45)ccc3C)c2)c1 [SURAMIN] | 110 | 
CCCCC1(COC(=O)CCC(=O)O)C(=O)N(c2ccccc2)N(c2ccccc2)C1=O [SUXIBUZONE] | 8 | 

Compound | inhibition at 50 µM [%] | IC50 [µM]
Cc1coc2c1C(=O)C(=O)c1c-2ccc2c1CCCC2(C)C [TANSHINONE IIA] | 50 | 
CC[C@H]1OC(=O)[C@H](C)C(=O)[C@H](C)[C@@H](O[C@@H]2O[C@H](C)C[C@H](N(C)C)[C@H]2O)[C@](C)(OC)C[C@@H](C)C(=O)[C@H](C)[C@H]2N(CCCCn3cnc(-c4cccnc4)c3)C(=O)O[C@]12C [TELITHROMYCIN] | 7 | 
COc1cc([C@@H]2c3cc4c(cc3[C@@H](O[C@@H]3O[C@@H]5CO[C@@H](c6cccs6)O[C@H]5[C@H](O)[C@H]3O)[C@H]3COC(=O)[C@H]23)OCO4)cc(OC)c1O [TENIPOSIDE] | 2 | 
COc1cc2nc(N3CCN(C(=O)C4CCCO4)CC3)nc(N)c2cc1OC (stereo not shown) [TERAZOSIN HYDROCHLORIDE] | 1 | 
CN(C/C=C/C#CC(C)(C)C)Cc1cccc2ccccc12 [TERBINAFINE HYDROCHLORIDE] | 1 | 
N#Cc1c(Cl)c(Cl)c(Cl)c(C#N)c1Cl [TETRACHLOROISOPHTHALONITRILE] | 138 | 9
CN(C)[C@@H]1C(O)=C(C(N)=O)C(=O)[C@@]2(O)C(O)=C3C(=O)c4c(O)cccc4[C@@](C)(O)[C@H]3C[C@@H]12 [TETRACYCLINE HYDROCHLORIDE] | 114 | 
O=C(O[C@@H]1Cc2c(O)cc(O)cc2O[C@@H]1c1cc(O)c(=O)c2c(O)c(O)cc([C@H]3Oc4cc(O)cc(O)c4C[C@H]3O)c2c1)c1cc(O)c(O)c(O)c1 [THEAFLAVIN MONOGALLATES] | 129 | 
O=c1c(O)cc([C@H]2Oc3cc(O)cc(O)c3C[C@H]2O)cc2c([C@H]3Oc4cc(O)cc(O)c4C[C@H]3O)cc(O)c(O)c12 [THEAFLAVIN] | 133 | 
CCNC(=O)CC[C@H](N)C(=O)O [THEANINE] | 1 | 
Cn1cnc2c1c(=O)[nH]c(=O)n2C [THEOBROMINE] | 0 | 
c1ccc2[nH]c(-c3cscn3)nc2c1 [THIABENDAZOLE] | 5 | 
Nc1nc2nc[nH]c2c(=S)[nH]1 [THIOGUANINE] | 1 | 
S=P(N1CC1)(N1CC1)N1CC1 [THIOTEPA] | 14 | 
CN(C)C(=S)SSC(=S)N(C)C [THIRAM] | 104 | 
COc1ccc(CN(CCN(C)C)c2ncccn2)cc1 [THONZYLAMINE HYDROCHLORIDE, reference compound] | 112 | 24
CC1=CC(=O)C(C(C)C)=CC1=O [THYMOQUINONE] | 2 | 
CC1(C)S[C@@H]2[C@H](NC(=O)[C@H](C(=O)O)c3ccsc3)C(=O)N2[C@H]1C(=O)O [TICARCILLIN DISODIUM] | 0 | 
Clc1ccccc1CN1CCc2sccc2C1 [TICLOPIDINE HYDROCHLORIDE] | 1 | 
CC[C@H]1OC(=O)C[C@@H](O)[C@H](C)[C@@H](O[C@@H]2O[C@H](C)[C@@H](O)[C@H](N(C)C)[C@H]2O)[C@@H](CCN2C[C@H](C)C[C@H](C)C2)C[C@@H](C)C(=O)/C=C/C(C)=C/[C@@H]1CO[C@@H]1O[C@H](C)[C@@H](O)[C@@H](OC)[C@H]1OC [TILMICOSIN] | 16 | 
CCS(=O)(=O)CCn1c([N+](=O)[O-])cnc1C [TINIDAZOLE] | 1 | 

Same assay, conditions: 50 µM

Compound | Inhibition (%)
Cc1c[nH]c2ccccc12 [SKATOLE] | 1
CC(C)=CCC/C(C)=C/CC/C(C)=C/CC/C(C)=C/CC/C(C)=C/CC/C(C)=C/CC/C(C)=C/CC/C(C)=C/CC/C(C)=C/CO [SOLANESOL] | 1
CC1=CC(=O)[C@H]2C(C)(C)CCC[C@]2(C)[C@@]1(O)CCc1ccoc1 [SOLIDAGENONE] | 0
C1CCN2C[C@@H]3C[C@@H](CN4CCCC[C@@H]34)[C@H]2C1.I [SPARTEINE HYDROIODIDE] | 1
Cc1c(S(=O)(=O)[O-])oc2c1C(=O)C(=O)c1c-2ccc2c1CCCC2(C)C.[Na+] [TANSHINONE IIA SULFONATE SODIUM] | 55
CC(C)(C)NCC(O)c1cc(O)cc(O)c1.CC(C)(C)NCC(O)c1cc(O)cc(O)c1.O=S(=O)(O)O (stereo not shown) [TERBUTALINE HEMISULFATE] | 1
Cl.c1ccc(C2CN3CCSC3=N2)cc1 (stereo not shown) [TETRAMIZOLE HYDROCHLORIDE] | 22
O=c1cccc2n1C[C@@H]1C[C@H]2CN2CCCC[C@H]12.[O-][Cl+3]([O-])([O-])O [THERMOPSINE PERCHLORATE] | 0
O=C(O)CCCCC1CCSS1 (stereo not shown) [THIOCTIC ACID] | 170%

Source: article PMC6627609, “Targeting Quorum Sensing: High-Throughput Screening to Identify Novel LsrK Inhibitors” (International Journal of Molecular Sciences, 2019)
